Laboratory results taken from patent US9446019B2, “Sparstolonin B based pharmaceutical agent for neuroblastoma treatment” (University of South Carolina, priority 2013, dated 2016).

How the values were obtained:
neuroblastoma cell lines = assay: Cell cycle analysis by flow cytometry, all lines together; assay type: cell-based, human
Description: The cell cycle progression was determined by flow cytometer analysis. Neuroblastoma cells were treated with SsnB or DMSO in DMEM with 10% FBS. Cells were collected after trypsinization with trypsin-EDTA solution (Atlanta Biologicals) and washed with 1× phosphate buffered saline (PBS). Approximately 1×10^6 cells were suspended in 300 μl of ice-cold 1×PBS, fixed by adding 700 μl of chilled absolute ethanol (to make final ethanol concentration 70%) drop wise and incubated for overnight at −20° C. Cells were pelleted at 1000×rpm for 5 min at 4° C., washed with 1×PBS for 3 times and stained with propidium iodide (Sigma-Aldrich, St. Louis, Mo.) by adding 1 ml of propidium iodide staining solution (containing 20 μg/ml propidium iodide and 10 μg/ml DNase-free RNase A in 0.1% Triton X-100/PBS) for 1 h on ice in dark. Samples were subjected to fluorescence-activated cell sorting analyses utilizing Beckman Coulter flow cytometer (Beckman Coulter, Indianapolis, Ind.). A minimum of 10,000 events were analyzed in each experiment.
To test whether SsnB-induced cell growth inhibition occurs through cell cycle arrest, cell cycle distribution was analyzed by flow cytometry after DNA staining with propidium iodide.

[1] = test system: human neuroblastoma cell lines (SH-SY5Y, SKNF-1, NGP, IMR-32 and SK-N-BE(2) cells); assay: Cell morphology by phase contrast microscopy; assay type: cell-based
Excerpt: Human neuroblastoma cell lines (SH-SY5Y, IMR-32, SK-N-BE(2) and SKNF-1 cells) were obtained from The American Type Culture Collection (ATCC; Manassas, Va.), and NGP cells were kind gift from Garrett M. Brodeur (The Children's Hospital of Philadelphia, Philadelphia, Pa.). All cell lines were maintained in complete Dulbecco's Modified Eagle's Medium (DMEM) supplemented with 10% fetal bovine serum (FBS; Atlanta Biologicals, Lawrenceville, Ga.) and 1× antibiotic-antimycotic solution (containing 100 U/ml penicillin, 100 μg/ml streptomycin and 0.25 μg/ml amphotericin B), and grown at 37° C. in a humidified incubator with 5% CO2. Stock solution of SsnB was prepared in dimethyl sulfoxide (DMSO). Cells treated with different concentrations of SsnB in DMEM with 10% FBS were grown for subsequent days. Cells treated with equal volume of DMSO were used as control.
To test the inhibitory effects of SsnB on neuroblastoma cell survival, human neuroblastoma cell lines of different genetic background (SH-SY5Y, SKNF-1, NGP, IMR-32 and SK-N-BE(2) cells) were treated with 1 μM, 5 μM, 10 μM or 20 μM concentration of SsnB under in vitro conditions. Following SsnB treatments, neuroblastoma cell were grown and were photographed under light microscope to evaluate the cell morphology.

[2] = test system: intracellular GSH in neuroblastoma cells; assay: Cellular glutathione level, luminescence GSH-Glo assay; assay type: cell-based, human
Description: Cells treated with SsnB or DMSO were washed and re-suspended in PBS and the intracellular GSH level was measured by luminescence based GSH-Glo glutathione assay kit (Promega, Madison, Wis.) following manufacturer's protocol. The luminescence was monitored in a luminometer (Promega Biosystems, Sunnyvale, Calif.).
At the cellular level, reduced glutathione (GSH) protects cells from oxidative damage resulted from increased superoxides, peroxides and free radicals. Since SsnB induces oxidative stress, SsnB affect of intracellular levels of GSH in neuroblastoma cells was examined. After treatment with SsnB for 2 days (SH-SY5Y and IMR-32), 3 days (NGP cells) or 4 days (SKNF-1 and SK-N-BE(2) cells), the cellular GSH level was measured by luminescence based glutathione assay kit.

[3] = test system: SH-SY5Y and SK-N-BE(2) cells; assay: Hanging-drop assay for spheroid formation; assay type: cell-based, human; settings: day 12
Description: 3-D in vitro hanging drop assay was carried out to detect the SsnB effect in neuroblastoma spheroid formation. Neuroblastoma cells were prepared as single cell suspension in complete culture medium (DMEM+10% FBS) without or with SsnB (1 and 10 μM). Twenty microliter drops of each prepared cell suspension containing 20,000 cells/drop were pipetted into the inner side of the lid of a 60 mm diameter tissue culture dish. The lid was gently inverted and placed on top of the culture dish filled with 5 ml of sterile 1×PBS to humidify the culture chamber. The drops were incubated under tissue culture conditions (at 37° C. and 5% CO2) allowing the cells to form aggregate at the base of the droplet. The cells in each droplet were photographed using Olympus SZX2 stereo microscope (Olympus America Inc., Center Valley, Pa.).
As SsnB inhibited the formation of neuroblastoma colony in anchorage-independent agarose gel assay, the ability of SsnB to inhibit the initiation of neuroblastoma tumors was tested in a hanging drop assay method. In the hanging drop assay the cells under the force of gravity and surface tension start accumulating at the bottom of the hanging drop and join together to form a spheroid. […]

`O=c1occ2c3c(ccc(O)c13)Oc1ccc(O)cc1-2` [SsnB, 8,5′-dihydroxy-4-phenyl-5,2′-oxidoisocoumarin] was tested, and the “cell cycle progression vs DMSO” value (neuroblastoma cell lines; SsnB 1 μM) was “did not affect cell cycle progression”, the G0/G1 phase cells (neuroblastoma cell lines; SsnB 10 μM) was “decrease in G0/G1 phase cells” and the “cell morphology (rounded cells, indication of cell death) vs DMSO” value ([1]; SsnB 10 μM and above, 2, 3 or 4 days depending on line) was “changed the morphology”. For the same molecule, the morphological changes ([1]; SsnB 1 or 5 μM, any cell line tested) was “not significant”, the “cellular GSH level” value ([2]; SsnB 1 μM) was “slightly higher or equal to control levels” and the “cellular GSH level” value ([2]; SsnB 10 μM, 2, 3 or 4 days depending on line, p<0.05) was ~40 % of control. The spheroid formation ([3]; SsnB 1 μM) was “compact cell clusters were formed” and the spheroid formation ([3]; SsnB 10 μM) was “unable to aggregate to form compact spheroids”.
